Data published in article PMC10120312 (Cell Insight, 2022).

Tests used:
EV-A71 [1] = assay: CPE assay against EV-A71 in RD cells; assay type: cell-based, Enterovirus 71 (EV-A71); settings: Enterovirus A, EVA71, RD, read-out: EC50 against EV-A71
EV-A71 [2] = assay: Viral entry assay; assay type: cell-based; settings: qRT-PCR; PTC-209HBr 3.2 μM, enviroxime 0.32 μM, pirodavir 0.64 μM; MOI 30
EV-A71 [3] = assay: Viral binding assay; assay type: cell-based; settings: qRT-PCR; PTC-209HBr 3.2 μM, enviroxime 0.32 μM, pirodavir 0.64 μM; MOI 30
VP1 and hSCARB2 = VP1 and hSCARB2 (Human enterovirus 71, UniProt Q66478); assay: IF assay of colocalization between VP1 and hSCARB2; assay type: cell-based; settings: RD cells, vs untreated cells
Sequence of VP1 and hSCARB2 (Q66478 324-565): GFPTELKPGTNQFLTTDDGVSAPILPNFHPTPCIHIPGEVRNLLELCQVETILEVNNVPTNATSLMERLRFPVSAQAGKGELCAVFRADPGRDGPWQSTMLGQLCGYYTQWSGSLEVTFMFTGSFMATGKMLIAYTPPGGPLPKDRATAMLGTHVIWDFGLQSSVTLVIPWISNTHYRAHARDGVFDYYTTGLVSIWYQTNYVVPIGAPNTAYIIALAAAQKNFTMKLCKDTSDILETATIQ
Sequence of VP1 and hSCARB2 (Q66478 566-862): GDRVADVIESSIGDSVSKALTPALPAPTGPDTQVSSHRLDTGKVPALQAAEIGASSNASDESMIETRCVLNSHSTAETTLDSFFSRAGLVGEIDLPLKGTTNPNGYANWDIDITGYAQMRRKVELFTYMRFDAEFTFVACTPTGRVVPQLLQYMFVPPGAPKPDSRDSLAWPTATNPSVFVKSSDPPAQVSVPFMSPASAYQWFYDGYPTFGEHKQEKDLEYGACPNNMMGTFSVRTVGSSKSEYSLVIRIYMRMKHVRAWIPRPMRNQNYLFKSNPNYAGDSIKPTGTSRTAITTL
Sequence of VP1 and hSCARB2 (Q66478 70-323): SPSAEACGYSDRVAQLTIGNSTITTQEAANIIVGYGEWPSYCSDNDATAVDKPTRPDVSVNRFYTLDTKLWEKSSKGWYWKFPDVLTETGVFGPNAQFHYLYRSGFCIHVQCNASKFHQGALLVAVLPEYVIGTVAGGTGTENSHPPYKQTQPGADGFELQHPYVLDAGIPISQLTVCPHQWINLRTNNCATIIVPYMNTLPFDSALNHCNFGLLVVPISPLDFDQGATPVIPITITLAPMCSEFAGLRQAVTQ
Sequence of VP1 and hSCARB2 (Q66478 2-69): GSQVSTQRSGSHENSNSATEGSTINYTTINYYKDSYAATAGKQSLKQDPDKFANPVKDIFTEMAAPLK

EV-A71 VP1 = EV-A71 VP1 (Human enterovirus 71, UniProt Q66478); assay type: binding; settings: MST, 500 nM VP1-EGFP
Sequence of EV-A71 VP1 (Q66478 566-862): as the sequence (Q66478 566-862) above

SMILES | EC50 (EV-A71 [1]) [nM] | Inhibition of EV-A71 entry (RNA level) (EV-A71 [2]) | Inhibition of EV-A71 binding (RNA level) (EV-A71 [3]) | Colocalization between VP1 and hSCARB2 in EV-A71-infected cells (VP1 and hSCARB2) | Kd VP1 (EV-A71 VP1)
CC(C)S(=O)(=O)n1c(N)nc2ccc(/C(=N/O)c3ccccc3)cc21 [Enviroxime, enviroxime] | 178 | little inhibited | little inhibited | decreased | low binding affinity
CCOC(=O)c1ccc(OCCC2CCN(c3ccc(C)nn3)CC2)cc1 [Pirodavir, pirodavir] | 5250 | but not entry | dramatically inhibit |  | 
